Experimental data from BindingDB's records for doi:10.1021/jm0506625 (Washington University, 2005).
Where a SMILES comes first, the peptide text is derived from it. [ ]: non-standard residue; d: D form. ξ: configuration not given here. Ile(3ξ) = CCC(C)[C@H](N)C(=O)O; Thr(3ξ) = CC(O)[C@H](N)C(=O)O

What was measured:
Caspase-8 = Caspase-8 (Homo sapiens, UniProt Q14790); test: Caspase Inhibition Assay
Procedure: (§1) The substrate peptides terminating in AMC are processed by caspases with or without inhibitors. […] Compounds were tested in duplicate, and IC50 curves were calculated for all inhibitors. Final IC50s were the average of three independent experiments.

Caspase-3 = target: T1, Caspase-3 (Homo sapiens, UniProt P42574); test: Caspase Inhibition Assay
T1 sequence (P42574 whole entry): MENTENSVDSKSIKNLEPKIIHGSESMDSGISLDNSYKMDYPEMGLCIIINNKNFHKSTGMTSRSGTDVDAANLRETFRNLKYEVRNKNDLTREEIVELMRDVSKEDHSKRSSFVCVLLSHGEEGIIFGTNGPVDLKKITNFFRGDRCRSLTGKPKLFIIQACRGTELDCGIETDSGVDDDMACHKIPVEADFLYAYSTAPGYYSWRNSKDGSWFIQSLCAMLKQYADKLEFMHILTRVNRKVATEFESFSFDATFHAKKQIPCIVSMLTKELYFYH
Procedure: as §1

Caspase-8, sequence (Q14790 217-374 limits assumed): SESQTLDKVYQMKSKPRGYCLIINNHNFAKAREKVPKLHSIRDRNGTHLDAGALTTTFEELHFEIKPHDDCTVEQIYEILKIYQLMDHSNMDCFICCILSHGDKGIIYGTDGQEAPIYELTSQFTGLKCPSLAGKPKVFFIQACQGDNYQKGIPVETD
Caspase-8, sequence (Q14790 385-479 limits assumed): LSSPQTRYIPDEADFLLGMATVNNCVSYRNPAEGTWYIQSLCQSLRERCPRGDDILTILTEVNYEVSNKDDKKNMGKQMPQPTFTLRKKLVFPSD

| IC50 (Caspase-8) | Ki (Caspase-3) | Compound |
| --- | --- | --- |
| 4.7 nM |  | CCC(C)[C@H](NC(C)=O)C(=O)N[C@@H](CCC(=O)O)C(=O)N[C@H](C(=O)N[C@H](C=O)CC(=O)O)C(C)O (stereo partly drawn) [(4S)-4-{[(1S)-1-{[(2S)-1-carboxy-3-oxopropan-2-yl]carbamoyl}-2-hydroxypropyl]carbamoyl}-4-[(2S)-2-acetamido-3-methylpentanamido]butanoic acid] (Ac-[Ile(3ξ)]E[Thr(3ξ)]D-aldehyde) |
|  | 4.4 nM | COc1ccc(CN2C(=O)C(=O)c3cc(S(=O)(=O)N4CCC[C@H]4COc4cccnc4)ccc32)cc1 [1-[(4-methoxyphenyl)methyl]-5-{[(2S)-2-[(pyridin-3-yloxy)methyl]pyrrolidine-1-]sulfonyl}-2,3-dihydro-1H-indole-2,3-dione] |
